IC50 and inhibition data for 9 compounds are collected here from the Kinase Knowledgebase extract (Sharma et al. 2016).

Chain of MAPK14 (human) (Q16539 whole entry, looked up): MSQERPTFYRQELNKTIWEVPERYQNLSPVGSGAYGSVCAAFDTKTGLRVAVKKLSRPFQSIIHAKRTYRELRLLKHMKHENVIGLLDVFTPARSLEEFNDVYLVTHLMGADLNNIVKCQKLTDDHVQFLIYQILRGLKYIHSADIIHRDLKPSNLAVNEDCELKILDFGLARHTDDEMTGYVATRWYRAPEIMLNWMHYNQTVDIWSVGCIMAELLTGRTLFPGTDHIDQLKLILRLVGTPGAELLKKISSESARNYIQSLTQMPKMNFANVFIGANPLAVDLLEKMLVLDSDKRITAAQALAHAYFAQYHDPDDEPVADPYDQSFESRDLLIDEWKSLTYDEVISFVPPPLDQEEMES

The first assay has as its target MAPK14 (human) (UniProt Q16539). Put plainly: LPS Induced TNF-alpha Production Inhibition (THP1 Cells).
Details: not given
A word on the IC50: it is the concentration at which inhibition is half-maximal. Lower therefore signals greater potency. `COn1c(-c2ccncc2)c(-c2ccc(F)cc2)c2ncccc21` showed a half-inhibitory concentration (IC50) of 0.46 nM.

For `Fc1ccc(-c2c(-c3ccncc3)n(OCCN3CCCC3)c3cccnc23)cc1`, the IC50 amounted to 0.12 nM.

As to `Fc1ccc(-c2c(-c3ccncc3)n(CCN3CCCCC3)c3cccnc23)cc1`, the 50% inhibitory concentration (IC50) stood at 0.3 nM.

As for `Fc1ccc(-c2c(-c3ccncc3)[nH]c3nccnc23)cc1`, the IC50 amounted to 1100 nM.

On to `OCCNc1cc(-c2[nH]c3nccnc3c2-c2ccc(F)cc2)ccn1`, for which the half-inhibitory concentration (IC50) was found to be 241 nM.

`N#CCCCn1c(-c2ccncc2)c(-c2ccc(F)cc2)c2nccnc21` returned an IC50 of 8830 nM. Against the preceding compound, the IC50 is about 37-fold higher.

A further assay concerns MAPK14 (Balb/c mice). Put plainly: LPS Induced TNF-alpha Prodcution Inhibition (BALB/c Mice). Conditions: dose or concentration not given here.
One may read the inhibition as the change of the read-out against control, counted positive when it falls. For the compound `COn1c(-c2ccncc2)c(-c2ccc(F)cc2)c2ncccc21`, the inhibition turned out to be 75%.

For `Fc1ccc(-c2c(-c3ccncc3)n(OCCN3CCOCC3)c3cccnc23)cc1`, the inhibition worked out at 56%.

`Fc1ccc(-c2c(-c3ccncc3)oc3cccnc23)cc1`: the inhibition is 86%.

`Fc1ccc(-c2c(-c3ccncc3)[nH]c3cccnc23)cc1` gave an inhibition of 68%.
